Laboratory results published in patent publication US10485235B2, “Aryloxypyrimidinyl ethers as herbicides” (FMC Corporation, priority 2015, dated 2019).

Columns and labels:
Format in all cases: in vivo
[1] = system: barnyardgrass (Echinochloa crus-galli); assay: Test A preemergence, barnyardgrass; details: Preemergence, 0 to 100 scale (0 no effect, 100 complete control)
Outline: (§1)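 Test chemicals in a solvent/surfactant mixture were applied as a preemergence directed soil spray on seeded loam–sand, or postemergence to plants 2–10 cm tall at the one- to two-leaf stage. After roughly 10 days in a greenhouse, injury was visually rated versus untreated controls on a 0 (no effect) to 100 (complete control) scale.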

kochia (Kochia scoparia) [2] = assay: Test A preemergence, kochia; details: Preemergence, 0 to 100 scale (0 no effect, 100 complete control)
Outline: as §1

[3] = system: ragweed (common ragweed, Ambrosia elatior); assay: Test A preemergence, ragweed; details: Preemergence, 0 to 100 scale (0 no effect, 100 complete control)
Outline: as §1

[4] = system: ryegrass, Italian (Italian ryegrass, Lolium multiflorum); assay: Test A preemergence, Italian ryegrass; details: Preemergence, 0 to 100 scale (0 no effect, 100 complete control)
Outline: as §1

[5] = system: foxtail, giant (giant foxtail, Setaria faberii); assay: Test A preemergence, giant foxtail; details: Preemergence, 0 to 100 scale (0 no effect, 100 complete control)
Outline: as §1

[6] = system: pigweed (Amaranthus retroflexus); assay: Test A preemergence, pigweed; details: Preemergence, 0 to 100 scale (0 no effect, 100 complete control)
Outline: as §1

[7] = system: barnyardgrass (Echinochloa crus-galli); assay: Test A postemergence, barnyardgrass; details: postemergence, 0 to 100 scale, 0 is no effect, 100 is complete control, approximately 10 days
Outline: as §1

kochia (Kochia scoparia) [8] = assay: Test A postemergence, kochia; details: postemergence, 0 to 100 scale, 0 is no effect, 100 is complete control, approximately 10 days
Outline: as §1

[9] = system: ragweed (common ragweed, Ambrosia elatior); assay: Test A postemergence, ragweed; details: postemergence, 0 to 100 scale, 0 is no effect, 100 is complete control, approximately 10 days
Outline: as §1

[10] = system: ryegrass, Italian (Italian ryegrass, Lolium multiflorum); assay: Test A postemergence, Italian ryegrass; details: postemergence, 0 to 100 scale, 0 is no effect, 100 is complete control, approximately 10 days
Outline: as §1

[11] = system: foxtail, giant (giant foxtail, Setaria faberii); assay: Test A postemergence, giant foxtail; details: postemergence, 0 to 100 scale, 0 is no effect, 100 is complete control, approximately 10 days
Outline: as §1

[12] = system: pigweed (Amaranthus retroflexus); assay: Test A postemergence, pigweed; details: postemergence, 0 to 100 scale, 0 is no effect, 100 is complete control, approximately 10 days
Outline: as §1

[13] = system: wheat (Triticum aestivum); assay: Test A postemergence, wheat; details: postemergence, 0 to 100 scale, 0 is no effect, 100 is complete control, approximately 10 days
Outline: as §1

corn (Zea mays) = assay: Test A postemergence, corn; details: postemergence, 0 to 100 scale, 0 is no effect, 100 is complete control, approximately 10 days
Outline: as §1

[14] = system: blackgrass (Alopecurus myosuroides); assay: Test A postemergence, blackgrass; details: postemergence, 0 to 100 scale, 0 is no effect, 100 is complete control, approximately 10 days
Outline: as §1

[15] = system: galium (catchweed bedstraw, Galium aparine); assay: Test A postemergence, galium; details: postemergence, 0 to 100 scale, 0 is no effect, 100 is complete control, approximately 10 days
Outline: as §1

rice (Oryza sativa) = assay: Test B flooded paddy test, rice; details: 250 g ai/ha, Flood; visual rating after 13 to 15 days; scale 0 to 100, 0 is no effect, 100 is complete control
Outline: (§2)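 Seedlings at the 2-leaf stage are flooded to 3 cm and treated via the paddy water. Greenhouse plants are compared with controls after 13 to 15 days and given a 0 (no effect) to 100 (complete control) rating.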

[16] = system: sedge, umbrella (small-flower umbrella sedge, Cyperus difformis); assay: Test B flooded paddy test, umbrella sedge; details: 250 g ai/ha, Flood; visual rating after 13 to 15 days; scale 0 to 100, 0 is no effect, 100 is complete control
Outline: as §2

[17] = system: ducksalad (Heteranthera limosa); assay: Test B flooded paddy test, ducksalad; details: 250 g ai/ha, Flood; visual rating after 13 to 15 days; scale 0 to 100, 0 is no effect, 100 is complete control
Outline: as §2

[18] = system: barnyardgrass (Echinochloa crus-galli); assay: Test B flooded paddy test, barnyardgrass; details: 250 g ai/ha, Flood; visual rating after 13 to 15 days; scale 0 to 100, 0 is no effect, 100 is complete control
Outline: as §2

Structure (SMILES)	Plant response rating, Barnyardgrass ([1]; 125 g ai/ha)	Plant response rating, Kochia (kochia (Kochia scoparia) [2]; 125 g ai/ha)	Plant response rating, Ragweed ([3]; 125 g ai/ha)	Plant response rating, Ryegrass, Italian ([4]; 125 g ai/ha)	Plant response rating, Foxtail, Giant ([5]; 125 g ai/ha)	Plant response rating, Pigweed ([6]; 125 g ai/ha)	Plant response rating, Barnyardgrass ([7]; 125 g ai/ha)	Plant response rating, Kochia (kochia (Kochia scoparia) [8]; 125 g ai/ha)	Plant response rating, Ragweed ([9]; 125 g ai/ha)	Plant response rating, Ryegrass, Italian ([10]; 125 g ai/ha)	Plant response rating, Foxtail, Giant ([11]; 125 g ai/ha)	Plant response rating, Pigweed ([12]; 125 g ai/ha)	Plant response rating, Wheat ([13]; 125 g ai/ha)	Plant response rating, Corn (corn (Zea mays); 125 g ai/ha)	Plant response rating, Blackgrass ([14]; 125 g ai/ha)	Plant response rating, Galium ([15]; 125 g ai/ha)	Plant response rating, Rice (rice (Oryza sativa))	Plant response rating, Sedge, Umbrella [16]	Plant response rating, Ducksalad [17]	Plant response rating, Barnyardgrass [18]	other results
FC(F)(F)CCCOc1c(Cl)cccc1Oc1ncc(Cl)cn1 [Compound 46]	80	80	0	10	100	100	30	80	10	10	60	90	0	20	40	70	0	100	98	0	Plant response rating, Barnyardgrass ([1]; 31 g ai/ha): 10; Plant response rating, Kochia (kochia (Kochia scoparia) [2]; 31 g ai/ha): 0; Plant response rating, Ragweed ([3]; 31 g ai/ha): 0; Plant response rating, Ryegrass, Italian ([4]; 31 g ai/ha): 0; Plant response rating, Foxtail, Giant ([5]; 31 g ai/ha): 40; Plant response rating, Pigweed ([6]; 31 g ai/ha): 0; Plant response rating, Barnyardgrass ([7]; 31 g ai/ha): 0; Plant response rating, Kochia (kochia (Kochia scoparia) [8]; 31 g ai/ha): 50; Plant response rating, Ragweed ([9]; 31 g ai/ha): 0; Plant response rating, Ryegrass, Italian ([10]; 31 g ai/ha): 0; Plant response rating, Foxtail, Giant ([11]; 31 g ai/ha): 20; Plant response rating, Pigweed ([12]; 31 g ai/ha): 50; Plant response rating, Wheat ([13]; 31 g ai/ha): 0; Plant response rating, Corn (corn (Zea mays); 31 g ai/ha): 10; Plant response rating, Blackgrass ([14]; 31 g ai/ha): 0; Plant response rating, Galium ([15]; 31 g ai/ha): 30
FC(F)(F)CCCCOc1c(Br)cccc1Oc1ncc(Cl)cn1 [Compound 33]	50	20	0	20	100	90	60	90	10	20	60	100	10	20	40	90	0	95	30	0	Plant response rating, Barnyardgrass ([1]; 31 g ai/ha): 10; Plant response rating, Kochia (kochia (Kochia scoparia) [2]; 31 g ai/ha): 0; Plant response rating, Ragweed ([3]; 31 g ai/ha): 0; Plant response rating, Ryegrass, Italian ([4]; 31 g ai/ha): 0; Plant response rating, Foxtail, Giant ([5]; 31 g ai/ha): 60; Plant response rating, Pigweed ([6]; 31 g ai/ha): 10; Plant response rating, Barnyardgrass ([7]; 31 g ai/ha): 10; Plant response rating, Kochia (kochia (Kochia scoparia) [8]; 31 g ai/ha): 50; Plant response rating, Ragweed ([9]; 31 g ai/ha): 0; Plant response rating, Ryegrass, Italian ([10]; 31 g ai/ha): 0; Plant response rating, Foxtail, Giant ([11]; 31 g ai/ha): 20; Plant response rating, Pigweed ([12]; 31 g ai/ha): 80; Plant response rating, Wheat ([13]; 31 g ai/ha): 0; Plant response rating, Corn (corn (Zea mays); 31 g ai/ha): 10; Plant response rating, Blackgrass ([14]; 31 g ai/ha): 10; Plant response rating, Galium ([15]; 31 g ai/ha): 50
Cc1cccc(Oc2ncc(Cl)cn2)c1OCCCF [Compound 57]	20	20	0	0	30	60	0	20	0	0	10	20	0	10	0	0	0	30	70	0	Plant response rating, Barnyardgrass ([1]; 31 g ai/ha): 0; Plant response rating, Kochia (kochia (Kochia scoparia) [2]; 31 g ai/ha): 0; Plant response rating, Ragweed ([3]; 31 g ai/ha): 0; Plant response rating, Ryegrass, Italian ([4]; 31 g ai/ha): 0; Plant response rating, Foxtail, Giant ([5]; 31 g ai/ha): 0; Plant response rating, Pigweed ([6]; 31 g ai/ha): 0; Plant response rating, Barnyardgrass ([7]; 31 g ai/ha): 0; Plant response rating, Kochia (kochia (Kochia scoparia) [8]; 31 g ai/ha): 0; Plant response rating, Ragweed ([9]; 31 g ai/ha): 0; Plant response rating, Ryegrass, Italian ([10]; 31 g ai/ha): 0; Plant response rating, Foxtail, Giant ([11]; 31 g ai/ha): 0; Plant response rating, Pigweed ([12]; 31 g ai/ha): 10; Plant response rating, Wheat ([13]; 31 g ai/ha): 0; Plant response rating, Corn (corn (Zea mays); 31 g ai/ha): 0; Plant response rating, Blackgrass ([14]; 31 g ai/ha): 0; Plant response rating, Galium ([15]; 31 g ai/ha): 0
N#Cc1cccc(Oc2ncc(Cl)cn2)c1OCc1ccc(Cl)cc1 [Compound 3]	50	80	0	20	90	90	50	70	60	20	60	100	0	10	20	60	0	80	0	0	Plant response rating, Barnyardgrass ([1]; 500 g ai/ha): 90; Plant response rating, Kochia (kochia (Kochia scoparia) [2]; 500 g ai/ha): 90; Plant response rating, Ragweed ([3]; 500 g ai/ha): 10; Plant response rating, Ryegrass, Italian ([4]; 500 g ai/ha): 30; Plant response rating, Foxtail, Giant ([5]; 500 g ai/ha): 100; Plant response rating, Pigweed ([6]; 500 g ai/ha): 90; Plant response rating, Barnyardgrass ([7]; 500 g ai/ha): 50; Plant response rating, Kochia (kochia (Kochia scoparia) [8]; 500 g ai/ha): 90; Plant response rating, Ragweed ([9]; 500 g ai/ha): 60; Plant response rating, Ryegrass, Italian ([10]; 500 g ai/ha): 30; Plant response rating, Foxtail, Giant ([11]; 500 g ai/ha): 70; Plant response rating, Pigweed ([12]; 500 g ai/ha): 100; Plant response rating, Wheat ([13]; 500 g ai/ha): 10; Plant response rating, Corn (corn (Zea mays); 500 g ai/ha): 20; Plant response rating, Blackgrass ([14]; 500 g ai/ha): 50; Plant response rating, Galium ([15]; 500 g ai/ha): 90
N#Cc1cccc(Oc2ncc(F)cn2)c1OCCCF [Compound 30]	20	90	30	20	30	80	10	10	10	40	0	0	0	0	0	0	0	40	30	0	Plant response rating, Barnyardgrass ([1]; 31 g ai/ha): 0; Plant response rating, Kochia (kochia (Kochia scoparia) [2]; 31 g ai/ha): 90; Plant response rating, Ragweed ([3]; 31 g ai/ha): 20; Plant response rating, Ryegrass, Italian ([4]; 31 g ai/ha): 0; Plant response rating, Foxtail, Giant ([5]; 31 g ai/ha): 10; Plant response rating, Pigweed ([6]; 31 g ai/ha): 50; Plant response rating, Barnyardgrass ([7]; 31 g ai/ha): 0; Plant response rating, Kochia (kochia (Kochia scoparia) [8]; 31 g ai/ha): 0; Plant response rating, Ragweed ([9]; 31 g ai/ha): 0; Plant response rating, Ryegrass, Italian ([10]; 31 g ai/ha): 30; Plant response rating, Foxtail, Giant ([11]; 31 g ai/ha): 0; Plant response rating, Pigweed ([12]; 31 g ai/ha): 0; Plant response rating, Wheat ([13]; 31 g ai/ha): 0; Plant response rating, Corn (corn (Zea mays); 31 g ai/ha): 0; Plant response rating, Blackgrass ([14]; 31 g ai/ha): 0; Plant response rating, Galium ([15]; 31 g ai/ha): 0
